Measured values reported in patent publication US5587459A, “Immunoconjugates comprising tyrosine kinase inhibitors” (Regents of the University of Minnesota, priority 1994, dated 1996).
Where two headings read alike, the source gives them in different places.

Columns and labels:
[1] = system: NALM-6 cells (human B-lineage leukemia); assay: SCID mouse model of human B-lineage leukemia; format: in vivo; settings: SCID mice inoculated with NALM-6 cells; schedule of each treatment group as in Table 6
Procedure: (§1) The pharmacokinetic features of B43-GEN was evaluated in a SCID mouse model with human B-lineage leukemia as follows. SCID mice challenged with NALM-6 cells were treated with either 25 μg/mouse=168 pmols/mouse (>10-foldlower than the MTD) or 50 μg/mouse=335 pmols/mouse (>5-fold lower than the MTD). All control mice were treated with unconjugated GEN (10 μg/mouse=37 nmols/mouse), unconjugated B43 antibody (50 μg/mouse=335pmols/mouse), TXU(anti-CD7)-GEN control immunoconjugate (50 μg/mouse=335 pmols/mouse), or PBS.
All control mice treated with unconjugated GEN, unconjugated B43 antibody, TXU(anti-CD7)-GEN control immunoconjugate, or PBS died of disseminated human B-lineage leukemia at 24 to 61 days after inoculation (FIG. 8). […] These long-term surviving mice were electively killed at 142 days in order to examine their burden of human leukemia cells.

[2] = system: RAMOS cells (human Burkitt's lymphoma); assay: SCID mouse model of human B-lineage lymphoma; format: in vivo, SCID mice; settings: 5×10^6 RAMOS cells; one value pooled over all control groups incl. PBS
Procedure: Control mice were treated with unconjugated GEN (10 μg/mouse=37 nmols/mouse), unconjugated B43 monoclonal antibody (50 μg/mouse=335 pmols/mouse), TXU(anti-CD7)-GEN control immunoconjugate (50 μg/mouse=335 pmols/mouse), or PBS. For comparison, some mice were treated with B43-pokeweed antiviral protein (PAP) immunotoxin (total=25 μg/mouse), which is an active anti-leukemia agent. Uckun et al., J. Exp. Med., 163, 347 (1986). Survival of the mice was monitored by daily observation and event times were measured from the day of inoculation of lymphoma cells to the day of death. The probability of event-free survival was determined and event-free interval curves were generated using the Kaplan-Meier product limit method as described by Uckun et al. New Engl. J. Med., 329, 1296 (1993).

[3] = biological target: T1, CD19-associated LYN kinase (Homo sapiens, UniProt P07948); assay: Immune complex kinase assay, LYN in treated NALM-6 cells; format: cell-based; settings: NALM-6 cells treated 4 hours; immunoconjugate nanomolar, unconjugated GEN micromolar
T1 construct: LYN kinase immunoprecipitated from NALM-6 cells; endogenous in cells; host or cells: NALM-6
T1 sequence (P07948 2-512 limits assumed): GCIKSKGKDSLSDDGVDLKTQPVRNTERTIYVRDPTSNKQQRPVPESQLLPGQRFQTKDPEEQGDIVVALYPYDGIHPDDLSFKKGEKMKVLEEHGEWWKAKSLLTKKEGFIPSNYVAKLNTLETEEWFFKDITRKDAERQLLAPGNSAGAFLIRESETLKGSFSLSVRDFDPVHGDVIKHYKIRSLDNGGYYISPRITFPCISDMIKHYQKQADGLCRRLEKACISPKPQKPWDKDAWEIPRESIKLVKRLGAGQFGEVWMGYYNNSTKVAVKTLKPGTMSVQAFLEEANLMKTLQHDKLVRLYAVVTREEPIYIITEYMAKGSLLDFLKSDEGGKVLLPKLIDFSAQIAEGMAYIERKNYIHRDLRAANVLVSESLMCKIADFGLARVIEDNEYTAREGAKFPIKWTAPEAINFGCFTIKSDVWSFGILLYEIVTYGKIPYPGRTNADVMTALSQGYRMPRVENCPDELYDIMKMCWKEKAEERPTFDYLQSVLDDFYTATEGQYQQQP
Procedure: Immune complex kinase assays were performed using acid-denatured rabbit enolase as an exogenous PTK substrate as previously described by Uckun et al. in J. Biol. Chem., 268, 21172 (1993).
Controls were treated with unconjugated GEN, TXU(anti-CD7)-GEN immunoconjugate directed against the CD7/Tp41 T-cell surface antigen, unconjugated and unmodified B43 antibody, or SANPAH-modified unconjugated B43 antibody.

RAMOS cells = assay: Apoptosis assays in RAMOS cells (morphology, DNA flow cytometry, DNA fragmentation); format: cell-based, human
Text: DNA was then electrophoresed through a 1% agarose gel and visualized by UV light after staining with ethidium bromide.

[4] = system: tyrosine phosphorylation of abundant protein substrates in NALM-6 cells; assay: Antiphosphotyrosine immunoblotting, NALM-6 cells; format: cell-based, human; settings: immunoconjugate nanomolar, unconjugated GEN micromolar
in vivo [5] = assay: in vivo; design: species or system SCID mice; settings: Minimal Leukemia Burden; for Kp: mouse, in vivo, iv
Procedure: FIG. 7[C] is a depiction of the plasma or tissue concentrations vs. time curves after i.v. injection of 58 pmol GEN (Δ) or BP43-GEN (o,) into SCID mice with end stage leukemia (dashed lines) or no leukemia (solid lines). Lines represent simulations from the physiological pharmacokinetic model, symbols depict measured concentrations.
as §1
This hypothesis is supported by measurement of higher concentrations of the immunoconjugate in tissues of SCID mice with end-stage leukemia, when compared to healthy SCID mice which have not been inoculated with leukemia cells (FIG. 7C). The spleen, liver, and lungs had the highest tissue-to-plasma ratio, with the tissue distribution ratio increasing approximately 2-fold in spleen and liver of mice with end-stage leukemia (Table 5). Although tissue distribution of the immunoconjugate into the femur was low in mice with a minimal leukemia burden, it increased 3-fold in mice with end-stage leukemia, reflecting binding of the immunoconjugate to CD19 positive human B-lineage leukemia cells infiltrating bone marrow.

in vivo [6] = format: in vivo, SCID mice; settings: Minimal Leukemia Burden
Procedure: Lines represent two-compartment model simulations, symbols depict measured concentrations.
as §1

[7] = biological target: T2, human topoisomerase II enzyme (Homo sapiens, UniProt P11388); assay: Topoisomerase II Drug Screening kit (pRYG relaxation/cleavage); format: biochemical; settings: B43-GEN at micromolar concentrations
T2 construct: purchased Topogen, Inc., Columbus, Ohio
T2 sequence (P11388 whole entry): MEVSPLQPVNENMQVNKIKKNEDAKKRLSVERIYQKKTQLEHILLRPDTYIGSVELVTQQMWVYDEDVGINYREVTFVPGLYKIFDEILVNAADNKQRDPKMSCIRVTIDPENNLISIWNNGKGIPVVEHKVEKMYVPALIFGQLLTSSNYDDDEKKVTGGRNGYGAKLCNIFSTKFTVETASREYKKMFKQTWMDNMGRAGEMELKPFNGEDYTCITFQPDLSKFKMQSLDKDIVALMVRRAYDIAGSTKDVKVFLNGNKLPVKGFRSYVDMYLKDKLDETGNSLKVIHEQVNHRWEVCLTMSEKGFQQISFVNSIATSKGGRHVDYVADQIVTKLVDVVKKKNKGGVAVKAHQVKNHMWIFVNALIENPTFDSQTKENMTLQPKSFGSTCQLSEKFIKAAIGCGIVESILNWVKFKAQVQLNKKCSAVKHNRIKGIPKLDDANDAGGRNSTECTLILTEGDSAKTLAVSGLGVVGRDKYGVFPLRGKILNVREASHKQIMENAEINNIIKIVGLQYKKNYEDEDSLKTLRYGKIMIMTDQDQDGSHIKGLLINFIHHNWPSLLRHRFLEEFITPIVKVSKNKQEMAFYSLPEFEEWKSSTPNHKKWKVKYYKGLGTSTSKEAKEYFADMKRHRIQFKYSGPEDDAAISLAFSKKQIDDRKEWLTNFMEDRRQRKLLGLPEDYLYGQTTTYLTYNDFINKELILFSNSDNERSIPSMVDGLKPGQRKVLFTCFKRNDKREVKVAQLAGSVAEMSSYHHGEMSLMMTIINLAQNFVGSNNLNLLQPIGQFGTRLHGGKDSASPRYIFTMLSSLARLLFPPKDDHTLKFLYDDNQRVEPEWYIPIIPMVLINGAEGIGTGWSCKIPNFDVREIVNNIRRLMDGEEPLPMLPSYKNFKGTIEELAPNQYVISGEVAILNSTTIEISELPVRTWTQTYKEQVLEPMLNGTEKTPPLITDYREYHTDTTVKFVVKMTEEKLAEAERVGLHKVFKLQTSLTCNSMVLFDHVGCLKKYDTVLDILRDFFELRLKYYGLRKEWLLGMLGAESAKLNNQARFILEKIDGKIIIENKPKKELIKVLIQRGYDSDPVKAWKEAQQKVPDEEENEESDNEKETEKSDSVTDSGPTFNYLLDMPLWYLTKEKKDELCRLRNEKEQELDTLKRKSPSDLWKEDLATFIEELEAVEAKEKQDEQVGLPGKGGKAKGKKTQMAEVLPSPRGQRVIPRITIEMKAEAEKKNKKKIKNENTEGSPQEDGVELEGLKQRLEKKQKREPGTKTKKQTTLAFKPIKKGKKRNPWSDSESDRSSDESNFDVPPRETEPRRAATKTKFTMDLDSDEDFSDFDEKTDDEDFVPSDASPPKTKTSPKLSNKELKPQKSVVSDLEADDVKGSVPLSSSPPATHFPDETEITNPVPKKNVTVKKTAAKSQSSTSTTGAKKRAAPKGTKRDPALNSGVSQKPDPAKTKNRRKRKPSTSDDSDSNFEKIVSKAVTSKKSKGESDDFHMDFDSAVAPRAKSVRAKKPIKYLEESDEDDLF
Text: The kit is based upon formation of DNA cleavage products after treatment of a supercoiled DNA substrate (pRYG) containing a single high affinity topoisomerase II recognition and cleavage site.

With CC[C@@]1(O)C(=O)OCc2c1cc1n(c2=O)Cc2cc3c(CN(C)C)c(O)ccc3nc2-1 [Topotecan] the “EFS (%) 60 days” value [1] was 18%, the “EFS (%) 120 days” value [1] was 0% and the “Median EFS” value [1] was 44 days.
For O=P1(N(CCCl)CCCl)NCCCO1 (stereo not drawn) [Cyclophosphamide], the “EFS (%) 60 days” value [1] was 40%, the “EFS (%) 120 days” value [1] was 10% and the “Median EFS” value [1] was 54 days.
With O=c1c(-c2ccc(O)cc2)coc2cc(O)cc(O)c12 [GEN, 5,7,4'-trihydroxyisoflavone] the Median event-free survival [2] was 48.0 days, the “Inhibition of LYN kinase (autophosphorylation, enolase substrate phosphorylation)” value [3] was “failed to affect” and the “DNA fragmentation / apoptosis by agarose gel electrophoresis” value (RAMOS cells; RAMOS cells, 8-24 hours, immunoconjugates nanomolar, unconjugated GEN micromolar) was “no fragmentation”. The “DNA fragmentation by the unconjugated moieties” value (RAMOS cells; high concentrations, FIG. 4B lower panel) was “induced DNA fragmentation”, the “Tyrosine dephosphorylation of abundant protein substrates” value [4] was “failed to affect” and the “Clearance, Kidney” value (in vivo [5]) was 18.7 µL/h/g. For the same compound, the “Clearance, Liver” value (in vivo [5]) was 40.9 µL/h/g, the “Total Clearance” value (in vivo [5]) was 59.6 µL/h/g and the Kp (in vivo [5]; read-out: Linear Binding Constant (R), Brain) was 0.027. For the same compound, the Kp (in vivo [5]; read-out: Linear Binding Constant (R), Heart) was 0.335, the Kp (in vivo [5]; read-out: Linear Binding Constant (R), Kidney) was 0.253 and the Kp (in vivo [5]; read-out: Linear Binding Constant (R), Liver) was 0.5. The Kp (in vivo [5]; read-out: Linear Binding Constant (R), Lungs) was 0.531, the Kp (in vivo [5]; read-out: Linear Binding Constant (R), Muscle) was 0.095 and the Kp (in vivo [5]; read-out: Linear Binding Constant (R), Skin) was 0.208. The Kp (in vivo [5]; read-out: Linear Binding Constant (R), Spleen) was 0.04, the Kp (in vivo [5]; residual drug not accounted for by tissues studied, read-out: Linear Binding Constant (R), Rest of Body) was 1.11 and the “Cl (systemic clearance from plasma)” value (in vivo [6]) was 49.7 µL/h/g. The “Kcp (distribution rate constant from central to peripheral compartment)” value (in vivo [6]) was 1.341 h⁻¹, the “Kpc (distribution rate constant from peripheral to central compartment)” value (in vivo [6]) was 0.549 h⁻¹ and the “Vc (central volume of distribution)” value (in vivo [6]) was 87.0 µL/g. For the same compound, the k el (in vivo [6]; mouse, in vivo, iv, read-out: Ke (elimination rate constant) (converted)) was 0.000159 s⁻¹ and the half-life (in vivo [6]; mouse, in vivo, iv, read-out: T1/2β (elimination halflife) (converted)) was 5.1 h.
With COc1cc([C@@H]2c3cc4c(cc3[C@@H](O[C@@H]3O[C@@H]5CO[C@@H](c6cccs6)O[C@H]5[C@H](O)[C@H]3O)[C@H]3COC(=O)[C@H]23)OCO4)cc(OC)c1O [teniposide (VM-26), teniposide] the “Inhibition of topoisomerase II (relaxation of supercoiled pRYG DNA)” value [7] was “impairs the ability of human topoisomerase II to relax the supercoiled DNA substrate”.
In the case of O=NN(CCCl)C(=O)NCCCl [Carmustine], the “EFS (%) 60 days” value [1] is reported as 20%, the “EFS (%) 120 days” value [1] is reported as 0% and the “Median EFS” value [1] is reported as 54 days.
For COc1cccc2c1C(=O)c1c(O)c3c(c(O)c1C2=O)C[C@@](O)(C(=O)CO)C[C@@H]3O[C@H]1C[C@H](N)[C@H](O)[C@H](C)O1 [Doxorubicin], the “EFS (%) 60 days” value [1] was 20%, the “EFS (%) 120 days” value [1] was 0% and the “Median EFS” value [1] was 49 days.
For C[C@H]1C[C@@H]2[C@H](C(=O)C[C@@]3(C)[C@H]2CC[C@]3(O)C(=O)CO)[C@@]2(C)C=CC(=O)C=C12 [Methylprednisone], the “EFS (%) 60 days” value [1] was 40%, the “EFS (%) 120 days” value [1] was 20% and the “Median EFS” value [1] was 56 days.
With L-asparaginase the “EFS (%) 60 days” value [1] was 0%, the “EFS (%) 120 days” value [1] was 0% and the “Median EFS” value [1] was 44 days.
With CC(=O)O[C@H]1C(=O)[C@@]2(C)[C@H]([C@H](OC(=O)c3ccccc3)[C@]3(O)C[C@H](OC(=O)[C@H](O)[C@@H](NC(=O)c4ccccc4)c4ccccc4)C(C)=C1C3(C)C)[C@]1(OC(C)=O)CO[C@@H]1C[C@@H]2O [Taxol] the “EFS (%) 60 days” value [1] was 0%, the “EFS (%) 120 days” value [1] was 0% and the “Median EFS” value [1] was 37 days.
For COc1cc([C@@H]2c3cc4c(cc3[C@@H](O[C@@H]3O[C@@H]5CO[C@@H](C)O[C@H]5[C@H](O)[C@H]3O)[C@H]3COC(=O)[C@H]23)OCO4)cc(OC)c1O [Etoposide], the “EFS (%) 60 days” value [1] was 60%, the “EFS (%) 120 days” value [1] was 30% and the “Median EFS” value [1] was 66 days.
For CC[C@]1(O)C[C@H]2CN(CCc3c([nH]c4ccccc34)[C@@](C(=O)OC)(c3cc4c(cc3OC)N(C=O)[C@H]3[C@@](O)(C(=O)OC)[C@H](OC(C)=O)[C@]5(CC)C=CCN6CC[C@]43[C@@H]65)C2)C1 [Vincristine], the “EFS (%) 60 days” value [1] was 0%, the “EFS (%) 120 days” value [1] was 0% and the “Median EFS” value [1] was 51 days.
For Nc1ccn([C@@H]2O[C@H](CO)[C@@H](O)[C@@H]2O)c(=O)n1 [Cytarabine], the “EFS (%) 60 days” value [1] was 20%, the “EFS (%) 120 days” value [1] was 0% and the “Median EFS” value [1] was 57 days.
